Experimental findings from ChEMBL document CHEMBL1201862, “PubChem BioAssay data set” (2004) are described below.

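In this assay, cells in 96-well plates receive the compound at five concentrations for 48 hours. Endpoints are linearly interpolated between the surrounding concentrations. Here, GI50 denotes the concentration required for 50% inhibition of growth.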 The source made the active and inactive calls. Cut-off read from the data, not from the text of the source: active = GI50 up to about 1.1 µM and inactive = higher.

Some test systems named below: A498; CAKI-1; CCRF-CEM; HCT-116; HOP-62; IGROV-1; Malme-3M; NCI-H23; NCI/ADR-RES; OVCAR-3; OVCAR-4; OVCAR-5; SF-539; SK-OV-3; SNB-19; SNB-75; SR; T47D; U-251; UACC-257.
Holding throughout (assay): NCI tumour cell line growth inhibition, 48 h

On to `CCOC(=O)NN(C(=O)OCC)C(=C(c1ccccc1)N1CCOCC1)N(NC(=O)OCC)C(=O)OCC`, for which the GI50 with A498, in the test with CAKI-1, in the test on CCRF-CEM, in the test on HCT-116, with HOP-62 and in the test with IGROV-1 was > 100 µM (inactive) each time. Besides, the GI50 in the test on Malme-3M, in the test on NCI-H23, with NCI/ADR-RES, with OVCAR-3, in the test on OVCAR-4 and in the test with OVCAR-5 was > 100 µM (inactive) each time. The GI50 in the test on SF-539 was > 100 µM (inactive); in the test on SK-OV-3, > 100 µM (inactive); in the test on SNB-19, > 100 µM (inactive); in the test on SNB-75 it was 44 µM (inactive); in the test with SR, > 100 µM (inactive); with T47D it was > 100 µM (inactive). Moreover, the GI50 with U-251 and with UACC-257 was > 100 µM (inactive) in each case.
`Cc1c2cc[n+]([O-])cc2c(C)c2c1[nH]c1ccccc12`: the GI50 in the test on A498 is 7.33 µM (inactive); in the test on CAKI-1, 7.05 µM (inactive); in the test with CCRF-CEM it was 2.88 µM (inactive); in the test on HCT-116, 1.39 µM (inactive); in the test with HOP-62, 5.74 µM (inactive); in the test on IGROV-1, 6.89 µM (inactive). The GI50 in the test with Malme-3M was 8.95 µM (inactive); in the test with NCI-H23, 6.04 µM (inactive); with NCI/ADR-RES it was 20.8 µM (inactive); with OVCAR-3, 12.5 µM (inactive); in the test on OVCAR-4, 9.95 µM (inactive); in the test on OVCAR-5, 4.59 µM (inactive). The GI50 with SF-539 is 2.99 µM (inactive); with SK-OV-3, 10.8 µM (inactive); with SNB-19, 7.13 µM (inactive); with SNB-75, 5.77 µM (inactive); in the test on SR it was 1.29 µM (inactive); in the test on T47D, 2.14 µM (inactive). The figures for the GI50 in the test on U-251 and in the test on UACC-257 were 3.76 µM (inactive) and 17.7 µM (inactive), respectively.
As to `CC(=O)Nc1ccc2c3c(cc(O)c2c1)N(C(=O)CCCCCCC(=O)Nc1ccc2c4c(cc(O)c2c1)N(C(=O)OC(C)(C)C)CC4CCl)CC3CCl` (stereo not given), the GI50 in the test with A498 is 0.0244 µM (active); in the test with CAKI-1, 1.02 µM (active); in the test with CCRF-CEM, < 0.01 µM (active); in the test with HCT-116 it was 0.0408 µM (active); in the test with HOP-62, 0.091 µM (active); in the test on IGROV-1, 0.0822 µM (active). Moreover, the GI50 is 0.083 µM (active) in the test on Malme-3M; 0.0337 µM (active) in the test on NCI-H23; > 35.4 µM (inactive) in the test on NCI/ADR-RES; 0.045 µM (active) in the test with OVCAR-3; 0.218 µM (active) in the test with OVCAR-4; 0.109 µM (active) with OVCAR-5. In addition, the GI50 in the test on SF-539 was 0.0637 µM (active); in the test with SK-OV-3, 0.0705 µM (active); with SNB-19, 0.046 µM (active); in the test on SNB-75, 0.0776 µM (active); in the test on SR it was < 0.01 µM (active); with T47D, 0.0573 µM (active). Moreover, the figures for the GI50 with U-251 and in the test on UACC-257 were 0.0205 µM (active) and 0.148 µM (active), respectively.
Turning to `CC(=O)O[C@H]1CC[C@@]2(C)C(=CC[C@H]3[C@@H]4CC[C@H](c5cc(C(F)(F)F)n(C(C)=O)n5)[C@@]4(C)CC[C@@H]32)C1`, the GI50 in the test with A498 was 10.6 µM (inactive); in the test with CAKI-1, 12 µM (inactive); in the test on CCRF-CEM, 2.98 µM (inactive); with HCT-116, 3.88 µM (inactive); in the test with HOP-62, 8.2 µM (inactive); in the test with IGROV-1, 3.84 µM (inactive). Besides, the GI50 is > 35 µM (inactive) in the test with Malme-3M; 6.05 µM (inactive) in the test on NCI-H23; 4.83 µM (inactive) in the test on NCI/ADR-RES; 5.77 µM (inactive) in the test with OVCAR-3; 3.31 µM (inactive) in the test on OVCAR-4; 9.4 µM (inactive) with OVCAR-5. Moreover, the GI50 with SF-539 was 6.47 µM (inactive); in the test with SK-OV-3, 12.5 µM (inactive); with SNB-19 it was 11 µM (inactive); in the test on SNB-75 it was 8.22 µM (inactive); in the test with SR, 3.98 µM (inactive); in the test with T47D, 6.41 µM (inactive). In addition, the GI50 with U-251 is 4.79 µM (inactive); in the test with UACC-257, 5.52 µM (inactive).
Consider `CN1CCN(C2=NCCO2)CC1`, for which the GI50 in the test on A498, in the test with CAKI-1, in the test on CCRF-CEM, in the test with HCT-116, in the test with HOP-62 and in the test on IGROV-1 was > 100 µM (inactive) throughout. Also, the GI50 with Malme-3M, in the test on NCI-H23, with NCI/ADR-RES, in the test with OVCAR-3, in the test on OVCAR-4 and in the test with OVCAR-5 was > 100 µM (inactive) throughout. In addition, the GI50 with SF-539, in the test on SK-OV-3, in the test on SNB-19, in the test with SNB-75, in the test on SR and in the test with T47D was > 100 µM (inactive) each time. Also, the GI50 with U-251 and with UACC-257 was > 100 µM (inactive) throughout.
Take `O=C(c1cc2c(c3ccccc13)NC1(CCCCC1)N=C2C(F)(F)F)C(F)(F)F`: the GI50 with A498 was 7.83 µM (inactive); in the test with CAKI-1 it was 3.35 µM (inactive); in the test with CCRF-CEM, 3.39 µM (inactive); in the test on HCT-116, 3.3 µM (inactive); in the test with HOP-62, 40.5 µM (inactive); in the test on IGROV-1, 4.93 µM (inactive). The GI50 with Malme-3M was 5.27 µM (inactive); in the test on NCI-H23 it was 3.83 µM (inactive); in the test with NCI/ADR-RES, 4.53 µM (inactive); in the test on OVCAR-3, 2.85 µM (inactive); with OVCAR-4, 3.73 µM (inactive); in the test on OVCAR-5 it was 8.83 µM (inactive). The GI50 in the test on SF-539 was 2.53 µM (inactive); with SK-OV-3, 5.61 µM (inactive); with SNB-19, 5.4 µM (inactive); in the test on SNB-75, 4.7 µM (inactive); with SR it was 3.6 µM (inactive); with T47D it was 2.93 µM (inactive). Besides, the GI50 is 3.78 µM (inactive) in the test with U-251 and 3.17 µM (inactive) in the test with UACC-257.
`C=C[C@H]1CN2CCc3c([nH]c4cc(O)ccc34)[C@@H]2C[C@@H]1C[C@H]1c2[nH]c3ccccc3c2CCN1C`: the GI50 in the test on A498 is 2.16 µM (inactive); in the test on CAKI-1, 6.04 µM (inactive); in the test with CCRF-CEM it was 1.69 µM (inactive); with HCT-116 it was 2.42 µM (inactive); with HOP-62 it was 4.45 µM (inactive); with IGROV-1, 1.85 µM (inactive). For the same molecule, the GI50 with Malme-3M was 13.8 µM (inactive); with NCI-H23, 16 µM (inactive); with NCI/ADR-RES, 9.06 µM (inactive); in the test on OVCAR-3 it was 4.39 µM (inactive); in the test with OVCAR-4, 7.03 µM (inactive); in the test on OVCAR-5, 17 µM (inactive). In addition, the GI50 was 1.82 µM (inactive) in the test with SF-539; 13.8 µM (inactive) with SK-OV-3; 6.67 µM (inactive) in the test with SNB-19; 2.11 µM (inactive) in the test on SNB-75; 2.67 µM (inactive) with SR; 15.6 µM (inactive) in the test on T47D. Besides, the GI50 in the test with U-251 is 1.77 µM (inactive); with UACC-257, 1.95 µM (inactive).
